Source: US20090005364A1, “Azole Derivatives With Antimuscarinic Activity” (priority 2004, published 2009)

What follows are compounds tested against T1, human M3-receptors (Homo sapiens, UniProt P20309) (assay: radioligand binding assay, M3 receptor ([3H]-N-methyl scopolamine)). Settings: membranes of CHO-K1 cells expressing human M3; [3H]-N-methyl scopolamine 0.1-0.3 nM; 90 min, room temperature.
T1 construct: expressed in transfected cells; host or cells: CHO-K1 clone cells; crude membrane fraction
Description: (§1) Cell Lines and Membrane Preparations
(§2) CHO—K1 clone cells expressing the human M1, M2 or M3-receptors (Swissprot P11229, P08172, P20309 respectively) were harvested in Ca^++/Mg^++ free phosphate-buffered saline and collected by centrifugation at 1500 rpm for 3 min. The pellets were resuspended in ice cold buffer A (15 mM Tris-HCl pH 7.4, 2 mM MgCl2, 0.3 mM EDTA, 1 mM EGTA) and homogenized by a PBI politron (setting 5 for 15 s).
(§3) Radioligand Binding Conditions
(§4) The day of experiment, frozen membranes were resuspended in buffer C (50 mM Tris-HCl pH 7.4, 2.5 mM MgCl2, 1 mM EDTA). […] The non specific binding was determined in the presence of cold N-methyl scopolamine 10 μM. Samples (final volume 0.75 ml) were incubated at room temperature for 120 min for Ml, 60 min for M2 and 90 min for M3 binding assay. The reaction was terminated by rapid filtration through GF/B Unifilter plates and two washes (0.75 ml) with cold buffer C using a Packard Filtermate Harvester. Radioactivity on the filters was measured by a microplate scintillation counter TopCount NXT (Camberra Packard).

T1 sequence (P20309 whole entry): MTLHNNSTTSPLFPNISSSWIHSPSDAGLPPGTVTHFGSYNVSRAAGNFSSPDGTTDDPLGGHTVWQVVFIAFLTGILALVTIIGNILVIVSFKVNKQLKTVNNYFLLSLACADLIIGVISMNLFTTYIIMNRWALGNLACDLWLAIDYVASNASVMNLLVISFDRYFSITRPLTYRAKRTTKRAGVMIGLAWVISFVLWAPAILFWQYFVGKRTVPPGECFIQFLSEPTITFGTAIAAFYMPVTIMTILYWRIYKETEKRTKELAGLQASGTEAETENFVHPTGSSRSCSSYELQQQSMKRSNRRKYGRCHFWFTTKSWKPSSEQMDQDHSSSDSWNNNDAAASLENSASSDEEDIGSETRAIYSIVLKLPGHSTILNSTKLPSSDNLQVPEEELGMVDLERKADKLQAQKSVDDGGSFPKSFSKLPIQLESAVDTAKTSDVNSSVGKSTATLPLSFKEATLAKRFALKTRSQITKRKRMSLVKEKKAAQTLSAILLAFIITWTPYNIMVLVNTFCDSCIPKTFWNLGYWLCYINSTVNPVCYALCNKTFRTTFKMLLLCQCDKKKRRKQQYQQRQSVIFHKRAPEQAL

| Ki [nM] | SMILES |
| --- | --- |
| 1.96 | C[N+]1(CC(=O)c2cccs2)CC[C@@H](N2CC(c3ccc(F)cc3)(c3ccc(F)cc3)NC2=O)C1 (some centres unmarked) [Compound 19bp] |
| 1.62 | C[N+]1(CC(=O)c2cccs2)CC[C@@H](N2CC(c3ccc(F)cc3)(c3ccc(F)cc3)NC2=O)C1 (some centres unmarked) [Compound 19bq] |

The compounds below were run against T2, human M2-receptors (Homo sapiens, UniProt P08172) (assay: radioligand binding assay, M2 receptor ([3H]-N-methyl scopolamine)). Settings: membranes of CHO-K1 cells expressing human M2; [3H]-N-methyl scopolamine 0.1-0.3 nM; 60 min, room temperature.
T2 construct: expressed in transfected cells; host or cells: CHO-K1 clone cells; crude membrane fraction
T2 sequence (P08172 1-466): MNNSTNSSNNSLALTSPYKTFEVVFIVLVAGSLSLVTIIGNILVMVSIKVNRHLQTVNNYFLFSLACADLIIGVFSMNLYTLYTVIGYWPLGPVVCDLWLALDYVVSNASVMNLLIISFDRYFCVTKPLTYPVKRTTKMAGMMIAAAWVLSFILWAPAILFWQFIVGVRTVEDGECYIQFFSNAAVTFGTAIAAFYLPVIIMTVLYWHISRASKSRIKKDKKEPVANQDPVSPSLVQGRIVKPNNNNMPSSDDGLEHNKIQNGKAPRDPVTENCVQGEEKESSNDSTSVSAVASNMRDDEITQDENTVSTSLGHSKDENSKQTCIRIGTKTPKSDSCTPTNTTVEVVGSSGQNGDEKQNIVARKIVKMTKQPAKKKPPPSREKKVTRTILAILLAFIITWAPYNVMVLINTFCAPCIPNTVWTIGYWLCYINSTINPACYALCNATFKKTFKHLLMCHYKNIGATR
Description: as §1, §2, §3, §4

| Ki [nM] | SMILES |
| --- | --- |
| 955 | O=C1NC(c2ccc(F)cc2)(c2ccc(F)cc2)CN1C1CCN(Cc2cccc(Cl)c2)CC1 [Compound 18ab] |
| 187 | O=C1NC(c2cccs2)(c2cccs2)CN1C1CCN(Cc2cccc(F)c2)CC1 [Compound 18ad] |
| 107 | Cc1cccc(CN2CCC(N3CC(c4cccs4)(c4cccs4)NC3=O)CC2)c1 [Compound 18ag] |
| 1140 | O=C1NC(c2ccc(F)cc2)(c2ccc(F)cc2)CN1C1CCN(Cc2cccc(F)c2)CC1 [Compound 18an] |
| 327 | O=C1NC(c2ccccc2)(c2ccccc2)CN1C1CCN(Cc2cccc(Cl)c2)CC1 [Compound 18e] |
| 224 | Cc1cccc(CN2CCC(N3CC(c4ccccc4)(c4ccccc4)NC3=O)CC2)c1 [Compound 18i] |
| 80.9 | C[N+]1(CC(=O)c2cccs2)CC[C@@H](N2CC(c3ccc(F)cc3)(c3ccc(F)cc3)NC2=O)C1 (some centres unmarked) [Compound 19bp] |
| 88.5 | C[N+]1(CC(=O)c2cccs2)CC[C@@H](N2CC(c3ccc(F)cc3)(c3ccc(F)cc3)NC2=O)C1 (some centres unmarked) [Compound 19bq] |
| 80.1 | O=C1NC(c2ccccc2)(c2ccccc2)CN1C1CCN(Cc2ccccc2)CC1 [Compound 27a, 3-(1-benzyl-piperidin-4-yl)-5 5-diphenyl-imidazolidin-2-one] |
| 73.3 | O=C1NC(c2ccccc2)(C2CCCCC2)CN1C1CCN(Cc2ccccc2)CC1 (centres unmarked) [Compound 27c] |
| 206 | O=C1NC(c2ccc(F)cc2)(c2ccc(F)cc2)CN1C1CCN(Cc2ccccc2)CC1 [Compound 27h] |
| 96.8 | O=C1NC(c2cccs2)(c2cccs2)CN1C1CCN(Cc2ccccc2)CC1 [Compound 27i] |
